Here are results for two compounds from patent US10596172B2 (Celgene CAR LLC, priority 2008, dated 2020).

For one assay, the system named is Human naïve B cells. In words: Human primary B cell proliferation assay. As to conditions: 5 μg/ml α-IgM 72 hours, 3H-thymidine incorporation. The format is cell-based. As to the method: Human naïve B cells were purified from 100 mL whole blood using a MACS purification kit designed to isolate CD19+, IgD+ cells by negative selection. Purified naïve B cells were resuspended in RPMI complete and stimulated with 5 μg/ml α-IgM for 72 hours. ^3H-Thymidine was included in the culture media for the final 16 h, cells were harvested and ^3H incorporation measured. Inhibition of B cell proliferation correlates with inhibition of BTK substrate phosphorylation after α-IgM stimulation.

The target of assay [1] is T1, BTK (Homo sapiens (Human), UniProt Q06187). In words: BTK occupancy in Ramos cells with I-7 and probe I-215 using streptavidin beads. The class given is cell-based. As to conditions: 1 hour, higher concentrations of I-7 (above 10 nM). As for the experimental part:
Ramos cells were incubated with 0.1, 0.05, 0.01, or 0.001 μM I-7 in serum free media for 1 hour at 37° C. The cells were pelleted by centrifugation and lysed in Cell Extraction buffer (Invitrogen) for 10 minutes on ice, centrifuged (10 minutes at 14,000 rpm) and the supernatant was collected. Cell lysates were incubated with 1 μM I-215 for 1 hour at room temperature, then incubated with streptavidin-coupled agarose beads (ThermoFisher) overnight at 4° C. The beads were washed three times with lysis buffer and the bound proteins were boiled off the beads at 95° C. for 5 minutes in 4×LDS Sample Buffer. The amount of BTK associated with the probe I-215 was assessed by BTK western blot. All values were normalized to the DMSO-treated sample which is set to 100%.

For assay [2], the target named is T1, BTK. Put plainly: Washout experiment with I-7 and probe compound I-215 in Ramos cells. As to conditions: 0.1 μM, 1 hour. The format is cell-based. As for the experimental part: Ramos cells were incubated with 0.1 μM I-7 or a reversible BTK inhibitor control compound in serum free media for 1 hour at 37° C. The cells were then washed in compound-free media and lysed 0, 4, 6, or 8 hours after compound removal. Cell lysates were incubated with 1 μM I-215 for 1 hour at room temperature, then overnight at 4° C. with streptavidin-coupled agarose beads. Protein was boiled off the beads and BTK association was assessed by western blot. […] In contrast, with the reversible inhibitor control, 45% of BTK protein is unbound and available to the probe at 0 hours and by 4 hours 100% of BTK protein is unbound and available to bind the probe. All samples were normalized to the DMSO-treated cells harvested at 0 hours.

Assay [3] has as its target BTK (Rattus norvegicus, UniProt Q5S255). Put plainly: BTK occupancy from in vivo samples by ELISA. As to conditions: po, rats dosed orally 30 mg/kg. As for the experimental part:
(§1) All samples were prepared with equal concentrations of Biorad lysis buffer (Hercules, Calif., USA), 0.5% bovine serum albumin in PBS with 0.05% Tween-20 to give a final concentration of 1 μM I-215. Samples were incubated in a mixing plate for 1 hr at room temperature while shaking to allow probe compound I-215 to bind to free BTK. After incubation with I-215, samples were added to a washed, streptavidin-coated ELISA plate (Pierce, Rockford, Ill., USA) and incubated for 1 hr at room temperature while shaking. The plate was then washed with PBS containing 0.05% Tween-20 using an automatic plate washer. Anti-BTK antibody was prepared at 1:1000 dilution in 0.5% BSA in PBS (0.05% Tween-20) and added to the ELISA plate. The plate was incubated for 1 hr at room temperature while shaking. The plate was washed as described above and the secondary HRP antibody was prepared at 1:5000 dilution in 0.5% BSA in PBS (0.05% Tween-20). The plate was incubated and washed as described above. TMB was added to the plate, and OD650 was monitored until reaching 1 OD unit. The reaction was then stopped with addition of H2SO4. The plate was analyzed using Gen 5 software, and a 4 Parameter Logistic curve was employed to quantitate samples. Recombinant BTK (Invitrogen, Carlsbad, Calif., USA) was used for the standard curve.
Rats were dosed orally with 30 mg/kg of compound and spleens were harvested either 2 or 24 hours after compound treatment. Rat spleens were disrupted between two microscope slides coated with frosted glass to recover single cell suspensions. Red blood cells were lysed by incubating with RBC lysis buffer (Boston BioProducts) for 2 minutes at room temperature, the cells were then resuspended in RPMI complete media and pelleted by centrifugation. Rat B cells were isolated by positive selection with B220+ antibody-magnetic bead conjugates, purified by MACS column and lysed in Bio-Rad lysis buffer at a concentration of 10 million cells/100 μl. Lysates were analyzed employing the biotinylated probe compound I-215 in an ELISA protocol as described in detail in Example 278.

The target in assay [4] is T1, BTK. In words: Mass spectrometry for BTK (covalent modification of intact protein). The class given is binding. As to conditions: 1 hr, 10x fold excess of compound. As to the method: Intact BTK was incubated for 1 hr at a 10× fold excess of I-7 to protein. Aliquots (2 μl) of the samples were diluted with 10 μl of 0.1% TFA prior to micro C4 ZipTipping directly onto the MALDI target using Sinapinic acid as the desorption matrix (10 mg/ml in 0.1% TFA:Acetonitrile 20:80).

The target in assay [5] is T1, BTK. In words: BTK occupancy from in vitro samples by ELISA (Ramos cells). The format is cell-based. As for the experimental part:
In order to determine the amount of free BTK in cell or tissue lysates, an ELISA protocol was employed that utilizes a biotinylated probe compound that binds only to free, unoccupied BTK. The conjugated biotin is captured on a streptavidin-coated ELISA plate and detected with a mouse anti-BTK antibody (Becton Dickinson, Franklin Lakes, N.J., USA) and a secondary goat anti-mouse HRP antibody (Zymed, South San Francisco, Calif., USA).
as §1
A concentration designated as “A” is greater than 1 nM; a concentration designated as “B” is greater than 10 nM; and a concentration designated as “C” is greater than 50 nM.
For orientation: ELISA stands for enzyme-linked immunosorbent assay.

The next assay addresses Erbb4 kinase domain (Homo sapiens (Human), UniProt Q15303). Put plainly: Mass spectrometry for ERBB4. The class given is binding. As to conditions: 60 minutes at 10-fold excess of compound. As to the method: Erbb4 kinase domain (Upstate) was incubated with compound for 60 minutes at 10-fold excess of compound I-4 and I-11 to protein. 1 μl aliquots of the samples (total volume of 4.24 ul) were diluted with 10 μl of 0.1% TFA prior to micro C4 ZipTipping directly onto the MALDI target using Sinapinic acid as the desorption matrix (10 mg/ml in 0.1% TFA:Acetonitrile 50:50). For intact protein mass measurement the instrument was set in Linear mode using a pulsed extraction setting of 16,952 for the myoglobin standard used to calibrate the instrument (Shimadzu Axima TOF^2).
Intact ErbB4 protein occurs at MH+ of 35850 with corresponding sinapinic (matrix) adducts occurring about 200 Da higher. A stoichiometric incorporation of the test compound (I-4 and I-11) (Mw of 410 Da) produced a new mass peak which is approximately 410 Da higher (MH+ of 36260).

[6] abbreviates: spleen B cells harvested 2 hours after treatment, read-out: % BTK Occupancy 2 h.
The mark [7] stands for this setting: spleen B cells harvested 24 hours after treatment, read-out: % BTK Occupancy 24 h.

The structures appear in SMILES notation. Read-outs that look alike come from different tables or passages of the source.

In general, EC50 refers to the concentration that produces a half-maximal response. High values mean weaker potency, low ones greater potency.

T1 sequence (Q06187 whole entry): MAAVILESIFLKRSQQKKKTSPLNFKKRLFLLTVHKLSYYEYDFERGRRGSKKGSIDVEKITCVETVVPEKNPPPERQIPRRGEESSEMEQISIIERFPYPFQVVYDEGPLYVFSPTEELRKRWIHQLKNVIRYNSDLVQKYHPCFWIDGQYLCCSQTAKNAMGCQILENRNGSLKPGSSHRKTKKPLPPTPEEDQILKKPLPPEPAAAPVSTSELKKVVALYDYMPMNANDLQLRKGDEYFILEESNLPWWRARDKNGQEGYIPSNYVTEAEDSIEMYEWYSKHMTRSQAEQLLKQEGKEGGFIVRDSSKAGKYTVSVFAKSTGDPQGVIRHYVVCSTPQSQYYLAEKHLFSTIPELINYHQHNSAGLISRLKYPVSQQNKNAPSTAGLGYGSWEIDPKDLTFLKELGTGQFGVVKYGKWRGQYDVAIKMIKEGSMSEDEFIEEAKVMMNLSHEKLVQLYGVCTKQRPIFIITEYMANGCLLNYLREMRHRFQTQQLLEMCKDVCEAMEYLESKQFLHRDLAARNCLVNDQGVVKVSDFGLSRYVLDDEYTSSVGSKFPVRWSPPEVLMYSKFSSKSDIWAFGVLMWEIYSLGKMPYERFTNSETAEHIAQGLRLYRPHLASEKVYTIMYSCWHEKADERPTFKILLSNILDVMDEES
Sequence of BTK (Rattus norvegicus, UniProt Q5S255) (Q5S255 1-660): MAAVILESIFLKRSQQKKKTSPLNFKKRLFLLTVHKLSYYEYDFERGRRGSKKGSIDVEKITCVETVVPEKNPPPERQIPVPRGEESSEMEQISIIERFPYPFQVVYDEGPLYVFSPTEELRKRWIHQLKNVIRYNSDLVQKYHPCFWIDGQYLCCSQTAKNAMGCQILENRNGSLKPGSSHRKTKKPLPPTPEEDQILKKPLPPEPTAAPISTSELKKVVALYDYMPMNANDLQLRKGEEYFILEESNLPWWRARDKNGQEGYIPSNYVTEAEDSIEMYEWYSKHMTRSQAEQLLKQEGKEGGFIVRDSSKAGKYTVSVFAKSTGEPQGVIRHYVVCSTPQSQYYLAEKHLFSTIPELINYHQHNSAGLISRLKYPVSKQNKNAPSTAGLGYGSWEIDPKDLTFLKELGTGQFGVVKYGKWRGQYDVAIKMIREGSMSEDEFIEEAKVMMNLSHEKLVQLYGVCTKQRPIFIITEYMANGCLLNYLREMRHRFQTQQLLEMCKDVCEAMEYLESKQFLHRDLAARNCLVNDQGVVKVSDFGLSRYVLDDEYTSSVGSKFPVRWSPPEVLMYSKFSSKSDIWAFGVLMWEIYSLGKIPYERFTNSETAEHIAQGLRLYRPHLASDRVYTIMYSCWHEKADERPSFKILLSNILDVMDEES
Sequence of Erbb4 kinase domain (Q15303 718-985): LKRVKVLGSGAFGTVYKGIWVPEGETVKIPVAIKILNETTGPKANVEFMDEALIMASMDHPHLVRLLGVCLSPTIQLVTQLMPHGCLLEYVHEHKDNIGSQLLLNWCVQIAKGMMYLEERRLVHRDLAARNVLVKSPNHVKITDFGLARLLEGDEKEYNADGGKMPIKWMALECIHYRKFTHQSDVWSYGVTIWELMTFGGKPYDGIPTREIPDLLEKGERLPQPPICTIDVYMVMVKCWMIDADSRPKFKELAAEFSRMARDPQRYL

With `C=CC(=O)Nc1cccc(Nc2nc(Nc3ccccc3)ncc2C)c1` [Compound I-7, N-(3-(5-methyl-2-(phenylamino)pyrimidin-4-ylamino)phenyl)acrylamide], the EC50 in the assay on Human naïve B cells is 1 to 10 nM. Also, the “BTK occupancy (BTK available to probe I-215)” value on BTK [1] is “fully occupied”. On BTK [2], the “time BTK protein remains occupied after compound removal” value is “over 8 hours”. Moreover, the receptor occupancy at 30 mg/kg on BTK [3] (setting [6]) came out at 98%. For the same compound, the receptor occupancy at 30 mg/kg on BTK [3] (setting [7]) is 78%. The “covalent modification of BTK by mass spectrometry” value on BTK [4] is given as “complete modification”. For the same compound, on BTK [5], the “>50% occupancy (concentration at which >50% of BTK is occupied)” value is “A (greater than 1 nM)” and the “>90% occupancy (concentration at which >90% of BTK is occupied)” value is on record as “B (greater than 10 nM)”.
On to `Cc1cccc(Nc2nc(Nc3cccc(NC(=O)/C=C/CN(C)C)c3)ncc2F)c1` [Compound I-4, (E)-4-(dimethylamino)-N-(3-(5-fluoro-4-(m-tolylamino)pyrimidin-2-ylamino)phenyl)but-2-enamide], for which the receptor occupancy at 30 mg/kg was 87% at BTK [3] (setting [6]) and 68% at BTK [3] (setting [7]). Also, the “covalent modification of ErbB4 by mass spectrometry” value at Erbb4 kinase domain is given as “covalent modification”.
